Values joined by “and” are separate entries in the source; they are usually repeats but may differ in a detail not shown here. Equal entries are not always repeated. Where two headings read alike, the source gives them in different places.
What was measured:
[1] = target: T1, hAChE (AChE from human erythrocytes) (Homo sapiens, UniProt P22303); assay: hAChE inhibition, spectrometric Ellman method; format: biochemical; conditions: for inhibition at 1 µM: 10^−6 M compound; for IC50: Ellman method, n = 2; for inhibition of the enzyme (AChE), in words: statement in discussion
T1 construct: AChE from human erythrocytes; purchased Sigma Aldrich; host or cells: human erythrocytes (tissue-derived enzyme)
Experimental: Inhibitory capacity of compounds on AChE biological activity was evaluated through the use of the spectrometric method of Ellman[39]. Acetylthiocholine and 5,5-dithiobis-(2-nitrobenzoic) acid (DTNB) were purchased from Sigma Aldrich. AChE from human erythrocytes (buffered aqueous solution, ≥500 units/mg protein (BCA), Sigma Aldrich) was diluted in 20 mM HEPES buffer pH 8, 0.1% Triton X-100 such as to have enzyme solution with 0.25 unit/mL enzyme activity. In the procedure, 100 μL of 0.3 mM DTNB dissolved in phosphate buffer pH 7.4 were added into the 96 wells plate followed by 50 μL of test compound solution and 50 μL of enzyme ([…]). After 5 min of preincubation at 25 °C, the reaction was then initiated by the injection of 50 μL of 10 mM acetylthiocholine iodide solution. The hydrolysis of acetylthiocholine was monitored by the formation of yellow 5-thio-2-nitrobenzoate anion as the result of the reaction of DTNB with thiocholine, released by the enzymatic hydrolysis of acetylthiocholine, at a wavelength of 412 nm using a 96-well microplate plate reader (TECAN Infinite M200, Lyon, France). Test compounds were dissolved in analytical grade DMSO. Donepezil was used as a reference standard. The rate of absorbance increase at 412 nm was followed every minute for 10 min. Assays were performed with a blank containing all components except acetylthiocholine, in order to account for non-enzymatic reaction. The reaction slopes were compared and the percent inhibition due to the presence of test compounds was calculated by the following expression: 100 − (vi/v0 × 100) where vi is the rate calculated in the presence of inhibitor and v0 is the enzyme activity.
For the compounds with significant inhibition (≥50%), IC50 values were determined graphically by plotting the % inhibition versus the logarithm of six inhibitor concentrations in the assay solution using the Origin software.

[2] = target: T2, human 5-HT4R (5-HT4(b) receptor membranes) (Homo sapiens, UniProt Q13639); assay: h5-HT4R competition binding with [3H]-GR113808; conditions: for inhibition: 0.2 nM [3H]-GR113808
T2 construct: purchased Millipore HTS110M
Experimental: The competition studies used membrane preparations made from proprietary stable recombinant cell lines expressing the 5-HT4(b) receptor to ensure high-level of GPCR surface expression (HTS110M, Millipore). Membranes (2.5 µg protein) were incubated in duplicate at 25 °C for 60 min in the absence or the presence of 10^–6 or 10^–8M of each drug and 0.2 nM [^3H]-GR 113808 (VT 240, ViTrax) in 25 mM Tris buffer (pH 7.4, 25 °C). At the end of the incubation, homogenates were filtered through Whatman GF/C filters (Alpha Biotech) pre-soaked with 0.5% polyethylenimine using a Brandel cell harvester. Filters were subsequently washed three times with 4 mL of ice-cold 25 mM Tris buffer (pH 7.4, 4 °C). Non-specific binding was evaluated in parallel in the presence of 30 μM serotonin.
For some of these compounds, affinity constants were calculated from five-point inhibition curves using the EBDA-Ligand software and expressed as Ki ± SD[41].

[3] = target: T3, HA-tagged human 5-HT4 receptor (Homo sapiens, UniProt Q13639); assay: cAMP production, competition assay in antagonist mode vs serotonin, transfected COS-7 cells; format: cell-based; conditions: for 5-HT4 pharmacological profile (antagonism assay): cAMP production
T3 construct: HA; expressed in transfected cells; host or cells: COS-7 cells (ATCC CRL-1651), transient transfection
From the text: (§1) Figure 5 Determination of the 5-HT4 pharmacological profiles for compounds 16, 32a and 33 by quantification of cAMP production. (A) Assay to determine the agonism activity (with serotonin and the partial agonist RS-67333 as references). (B) Assay to determine the antagonism activity (with the antagonist GR113808 as reference). Data presented are the mean of three independent experiments performed in duplicate.
(§2) COS-7 cells were purchased from ATCC (ATCC CRL-1651; LGC […], Molsheim, France). T were grown in Dulbecco’s modified Eagle medium (DMEM) supplemented with 10% dialyzed fetal calf serum (dFCS) and antibiotics. Cells were transiently transfected with plasmid encoding HA-tagged human 5-HT4 receptor, then seeded in 96-well plates (35,000 cells/well). 24 hrs after transfection, cells were washed once with 200 µl of HBS (20 mM HEPES; 150 mM NaCl; 4.2 mM KCl; 0.9 mM CaCl2; 0.5 mM MgCl2; 0.1% glucose; 0.1% BSA) and, after HBS removal, exposed to the indicated concentrations of 5-HT4R ligands in the presence of 0.1 mM of the phosphodiesterase inhibitor RO-20-1724, at 37 °C in 100 µl of HBS. After 10 min, cells were then lysed by addition of the same volume of Triton-X100 (0.1%) during 30 min at 37 °C. The competition assay in antagonist mode was performed as follows: after one wash in 200 µl of HBS, cells were exposed to 5-HT4R ligands at twice the indicated concentration, at 37 °C in 50 µl of HBS. After 7 min, serotonin (final concentration of 5.10^−7M) was added in 50 µl of HBS in the presence of the phosphodiesterase inhibitor RO-20-1724 (final concentration of 0.1 mM). After 10 min, cells were then lysed by addition of the same volume of Triton-X100 (0.1%) during 30 min at 37 °C. Quantification of cAMP production was performed by HTRF by using the cAMP Dynamic kit (Cisbio Bioassays) according to the manufacturer’s instructions

[4] = target: T3, HA-tagged human 5-HT4 receptor; assay: cAMP production, agonist mode, transfected COS-7 cells; format: cell-based; conditions: for 5-HT4 pharmacological profile (agonism assay): cAMP production, COS-7 cells; for Log(EC50): given as Log(EC50)
From the text: as §1, §2

5-HT4dR = conditions: cited from earlier work
BuChE = system: BuChE; design: method as in PMID 8064800; conditions: cited from earlier work
AChE = conditions: read-out: AChE IC50; cited from earlier work
[5] = design: method as in PMID 8064800; conditions: cited from earlier work
[6] = design: method as in PMID 8064800; conditions: mouse; cited from earlier work
[7] = 10^−6 M compound, read-out: h5-HT4R % inhibition at 10^−6 M (converted)
[8] = 10^−8 M compound, read-out: h5-HT4R % inhibition at 10^−8 M (converted)
[9] = IC50 (5-HT4R antagonist, cAMP production), COS-7 cells, serotonin 5.10^−7 M, mean of three experiments
[10] = IC50, antagonist mode, individual experiments HP8, HP10, HP11, unit inferred
[11] = Log(IC50), antagonist mode, Moy., printed as Log(IC50), negative
[12] = antagonist mode, individual experiments HP8, HP10, HP11
[13] = agonist mode, individual experiments HP5, HP6, HP7
[14] = agonist mode, Moy. (mean of HP5-HP7), unit not given
[15] = agonist mode, individual experiments HP5, HP6, HP7, unit not given

T3 sequence (Q13639 whole entry): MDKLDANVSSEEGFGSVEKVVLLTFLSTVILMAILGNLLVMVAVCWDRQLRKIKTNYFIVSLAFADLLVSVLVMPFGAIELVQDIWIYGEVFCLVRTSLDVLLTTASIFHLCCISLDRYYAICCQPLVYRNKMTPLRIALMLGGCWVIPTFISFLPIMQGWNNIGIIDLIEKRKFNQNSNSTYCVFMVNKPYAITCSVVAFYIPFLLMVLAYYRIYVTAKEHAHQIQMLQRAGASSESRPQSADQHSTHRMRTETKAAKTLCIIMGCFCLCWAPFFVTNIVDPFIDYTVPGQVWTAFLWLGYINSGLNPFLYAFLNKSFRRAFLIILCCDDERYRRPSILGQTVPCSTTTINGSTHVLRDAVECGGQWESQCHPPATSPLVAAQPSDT
T2 sequence (Q13639 whole entry): as above
T1 sequence (P22303 other isoform, or with tags, fused parts or gaps): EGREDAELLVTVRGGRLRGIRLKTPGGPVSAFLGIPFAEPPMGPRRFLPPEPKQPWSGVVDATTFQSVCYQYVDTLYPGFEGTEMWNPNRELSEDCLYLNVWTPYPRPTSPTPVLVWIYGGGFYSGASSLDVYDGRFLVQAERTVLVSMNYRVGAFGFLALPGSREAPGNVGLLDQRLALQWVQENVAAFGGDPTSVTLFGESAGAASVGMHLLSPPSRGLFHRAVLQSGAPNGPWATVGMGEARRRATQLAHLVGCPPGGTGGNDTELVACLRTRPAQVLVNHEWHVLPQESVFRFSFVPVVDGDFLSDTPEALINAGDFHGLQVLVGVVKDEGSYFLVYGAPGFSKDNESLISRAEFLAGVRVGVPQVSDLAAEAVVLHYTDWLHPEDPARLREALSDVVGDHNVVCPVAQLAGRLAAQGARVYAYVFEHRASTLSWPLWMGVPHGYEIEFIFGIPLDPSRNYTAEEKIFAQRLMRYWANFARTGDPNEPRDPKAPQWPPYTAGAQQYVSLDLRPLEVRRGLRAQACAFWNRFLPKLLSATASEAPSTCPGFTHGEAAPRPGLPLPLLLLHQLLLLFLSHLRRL

SMILES | inhibition at 1 µM [1] | IC50 [1] | Ki [2] | inhibition [2, 7] | inhibition [2, 8] | further results
COc1cccc2onc(OCC3CCN(CC4CCCCC4)CC3)c12 [Compound 14] | 82% | 441 ± 63 nM | 2.7 ± 0.4 nM | 100% | 99% | –
CC(C)COc1cccc2onc(CCC3CCN(CC4CCCCC4)CC3)c12 [Compound 32c] | 42% | – | 219 ± 65 nM | 100% | 4% | inhibition of the enzyme (AChE), in words [1]: without AChE inhibition
c1cc(OC2CCCC2)c2c(CCC3CCN(CC4CCCCC4)CC3)noc2c1 [Compound 32d] | 52% | 1000 ± 84 nM | 616 ± 67 nM | 100% | 0% | –
c1ccc(CN2CCC(COc3noc4ccccc34)CC2)cc1 [Compound 12] | – | – | 42.4 ± 12.2 nM | 99% | 29% | –
c1ccc2c(CCC3CCN(CC4CCCCC4)CC3)noc2c1 [Compound 21] | 84% | 240 ± 59 nM | 139 ± 9 nM | 89% | 4% | –
COc1cccc2onc(OCC3CCN(Cc4ccccc4)CC3)c12 [Compound 15] | 82% | 939 ± 40 nM | 3 ± 0.4 nM | 100% | 94% | –
CC(C)CN1CCC(COc2noc3ccccc23)CC1 [Compound 13] | 8% | – | 20.8 ± 12.5 nM | 100% | 59% | –
COc1cccc2onc(CCC3CCN(CC4CCCCC4)CC3)c12 [Compound 32a, 3-[2-[1-(cyclohexylmethyl)-4-piperidyl]ethyl]-4-methoxy-1,2-benzoxazole] | 94% | 63.5 ± 19.2 nM | 59 ± 8.5 nM | 100% | 13% | IC50 [3, 9]: 97.2 ± 17.2 nM; IC50 [3, 10]: 129 nM and 69.5 nM and 93.6 nM; IC50 [3, 11]: 100 nM; Bott. AMPc ([3]; antagonist mode, Moy.): 33%; Bott. AMPc [3, 12]: 38.80% and 27.69% and 32.50%; 5-HT4 pharmacological profile (antagonism assay) ([3]; COS-7 cells): antagonists; EC50 ([4]; EC50, agonist mode, Moy. (mean of HP5-HP7), unit inferred): 11.3 µM; EC50 ([4]; EC50, agonist mode, individual experiments HP5, HP6, HP7, unit inferred): 13.6 µM and 20.3 µM; Top AMPc ([4]; agonist mode, Moy.): 22%; Top AMPc [4, 13]: 29.36% and 12.83% and 24.95%; 5-HT4 pharmacological profile (agonism assay) [4]: not agonist
CC(C)CN1CCC(CCc2noc3ccccc23)CC1 [Compound 23] | 11% | – | – | 87% | 8% | –
Oc1cccc2onc(CCC3CCN(CC4CCCCC4)CC3)c12 [Compound 33] | 87% | 97.3 ± 1.5 nM | 37 ± 10.5 nM | 100% | 29% | IC50 [3, 9]: 883 ± 598 nM; Bott. AMPc ([3]; antagonist mode, Moy.): 44%; Bott. AMPc [3, 12]: 50.44% and 46.43% and 34.27%; 5-HT4 pharmacological profile (antagonism assay) ([3]; COS-7 cells): antagonists; Top AMPc ([4]; agonist mode, Moy.): -3%; EC50 [4, 14]: ns; Log(EC50) ([4]; agonist mode, Moy., negative): ns; Top AMPc [4, 13]: -15.21% and 4.96% and 0.00%; Log(EC50) [4, 13]: ns; EC50 [4, 15]: ns; 5-HT4 pharmacological profile (agonism assay) [4]: not agonist
CCOc1cccc2onc(CCC3CCN(CC4CCCCC4)CC3)c12 [Compound 32b] | 87% | 200 ± 32 nM | 80.5 ± 9.9 nM | 100% | 16% | –
c1ccc(COc2cccc3onc(CCC4CCN(CC5CCCCC5)CC4)c23)cc1 [Compound 32e] | 10% | – | 2920 ± 781 nM | 96% | 0% | –
c1ccc2c(OCC3CCN(CC4CCCCC4)CC3)noc2c1 [Compound 11, 3-[[1-(cyclohexylmethyl)-4-piperidyl]methoxy]-1,2-benzoxazole] | 24% | – | 9.6 ± 1.6 nM | 100% | 67% | –
c1ccc(CN2CCC(CCc3noc4ccccc34)CC2)cc1 [Compound 22] | – | – | 263 ± 11 nM | 78% | 8% | –
OC1(CN2CCC(COc3noc4cccc(O[C@@H]5CCOC5)c34)CC2)CCOCC1 [[A]] | – | – | – | – | – | 5-HT4dR Emax (5-HT4dR): 24%; EC50 (5-HT4dR): 0.2 nM
CC(=O)Nc1ccc2c(CCC3CCN(Cc4ccccc4)CC3)noc2c1 [[B]] | – | – | – | – | – | IC50 (BuChE): 9 µM; ratio BuAChE/AChE (BuChE; selectivity ratio): 3200; IC50 (AChE): 2.8 nM; elevation of ACh in mouse [5]: dose-dependent elevation of ACh; effect on amnesia, passive avoidance model [6]: reversion of amnesia
COc1cccc2onc(OCC3CCN(CC(C)C)CC3)c12 [Compound 16] | 23% | – | 4.1 ± 0.4 nM | 100% | 100% | IC50 [3, 9]: 5.6 ± 2.2 nM; IC50 [3, 10]: 5.07 nM and 2.01 nM and 9.78 nM; IC50 [3, 11]: 5.01 nM; Bott. AMPc ([3]; antagonist mode, Moy.): 31%; Bott. AMPc [3, 12]: 39.69% and 29.62% and 24.98%; 5-HT4 pharmacological profile (antagonism assay) ([3]; COS-7 cells): highly potent antagonist; inhibition of the enzyme (AChE), in words [1]: did not show any inhibition; Top AMPc ([4]; agonist mode, Moy.): 4%; EC50 [4, 14]: ns; Log(EC50) ([4]; agonist mode, Moy., negative): ns; Top AMPc [4, 13]: 5.63% and 0.00% and 6.91%; Log(EC50) [4, 13]: ns; EC50 [4, 15]: ns; 5-HT4 pharmacological profile (agonism assay) [4]: not agonist

Source: PMC7033111, “Rational design of novel benzisoxazole derivatives with acetylcholinesterase inhibitory and serotoninergic 5-HT4 receptors activities for the treatment of Alzheimer’s disease” (Scientific Reports, 2020)
